Consider 87 compounds from a melting point compilation (Tetko et al.).

Consider `Nc1nc(-c2ccc(S(=O)(=O)N3CCCCCC3)cc2)cs1`, for which the melting point (commonly the temperature, or range, at which the solid turns liquid) is 242 to 244 °C.
Compound `CCN(CC)S(=O)(=O)c1ccc(-c2ccc(C=O)o2)cc1` displayed a melting point of 119 to 121 °C.
As to `Nc1cccc(C(=O)CCC(=O)O)c1`, the melting point lay within 126 to 128 °C.
Take `O=C(O)c1cc2ccc(F)cc2s1`: the melting point lay in the range of 220 to 222 °C.
The compound `NNc1ncccn1` had a melting point of 90 to 92 °C.
On to `CNS(=O)(=O)c1cccc(F)c1`, for which the melting point lay within 58 to 60 °C.
Compound `NC(=O)NC1(C(=O)O)CCCCC1` yielded a melting point of 179 to 181 °C.
Consider `COC(=O)C(=O)CC(=O)c1ccc(OC)c(OC)c1`, for which the melting point was in the range of 141 to 150 °C.
The compound `CC1(c2cccc(C(N)=O)c2)NC(=O)NC1=O` (configuration not stated) came in with a melting point of 225 to 227 °C.
With `O=C(O)C1CCCN(c2ncnc3sccc23)C1` (configuration not stated) the figure was 214 to 216 °C.
`N#Cc1cnn(CCO)c1N` had a melting point of 156 to 158 °C.
In turn, `CN1CC(C(=O)O)Cc2ccccc21` (configuration not stated) gave a melting point of 209 to 211 °C.
Consider `Cc1nc2c(C(N)=O)cnn2c(C)c1CCC(=O)O`, for which the melting point lay in the range of 282 to 284 °C.
`Nc1ccc(F)c(F)c1N` displayed a melting point of 114 to 117 °C.
Take `CCCCN(CC)c1ccc(C(=O)O)cc1`: the melting point fell in the range of 137 to 139 °C.
`CCOC(=O)c1c(N)sc(C)c1CC`: the melting point lay in the range of 45 to 47 °C.
Consider `Cc1sc2nc(Cn3cnc([N+](=O)[O-])c3)nc(Cl)c2c1C`, for which the melting point lay in the range of 185 to 187 °C.
`Cc1cc(C)c([N+](=O)[O-])c(Cl)n1` gave a melting point of 59 to 61 °C.
The compound `CC(C)(C)c1ccc(C2(C(=O)O)CCCC2)cc1` returned a melting point of 189 to 191 °C.
To `O=C(O)C(Cn1ccc(C(F)(F)F)n1)NC1CC1` (configuration not stated) belongs 175 to 177 °C; to `COc1ccc(C=O)cc1SC`, 44 to 46 °C; to `CCOc1ccc(C(C)(C)C(=O)O)cc1OCC`, 74 to 76 °C.
With `Nc1ccc2nc(-n3ccnc3)sc2c1`, the melting point was in the range of 202 to 204 °C.
`CN(c1ccc(O)cc1)S(=O)(=O)c1ccc(Cl)cc1` had a melting point of 154 to 156 °C.
`Cc1ccc(Br)cc1N` returned a melting point of 31 to 33 °C.
With `CC(C)Sc1ccc([N+](=O)[O-])cc1C(=O)O`, the melting point lay within 184 to 186 °C.
For the compound `CCn1nnnc1-c1cccc(N)c1`, the melting point lay in the range of 118 to 120 °C.
To `CC(C)(C)n1[nH]c(=O)cc1N` belongs 223 to 225 °C; to `COC(=O)C(N)c1ccc(F)cc1F` (configuration not stated), 39 to 41 °C.
With `CS(=O)(=O)c1cccc(C(N)c2ccccc2)c1` (configuration not stated) the figure was 48 to 50 °C.
On to `CN(CCCC(=O)O)C(=O)c1cc(S(N)(=O)=O)cn1C`, for which the melting point was 173 to 175 °C.
`CN1CCN(c2ccc(C(F)(F)F)cc2N)CC1`: the melting point was in the range of 178 to 180 °C.
Take `Nc1cc(-c2ccc(Br)s2)n[nH]1`: the melting point was in the range of 141 to 143 °C.
`COc1ccc(C=O)cc1OCc1cccnc1` registered a melting point of 84 to 86 °C.
`CC(=N\O)/C(C)=N/O`: the melting point fell in the range of 240 to 241 °C.
Compound `CCOc1ccc(C2(O)CCCC2)cc1` gave a melting point of 88 to 90 °C.
`CC(C)c1nc(N)no1`: the melting point was in the range of 39 to 41 °C.
To `Nc1cccc(-n2ccnn2)c1` belongs 118 to 120 °C; to `NC1(CO)Cc2ccccc2C1`, 107 to 109 °C.
`O=C1C=C2NCCC=C2O1` had a melting point of 109 to 111 °C.
Take `Cc1cc(N(C)C)ccc1C#N`: the melting point lay in the range of 59 to 61 °C.
The compound `O=C(O)c1c2c(nc3ccc(Br)cc13)CCCC2` yielded a melting point of 291 to 293 °C.
Regarding `O=C(CCl)Nc1ccc(C(=O)O)cc1`, the melting point lay in the range of 230 to 232 °C.
Take `Nc1ccc(C(=O)NCc2ccccc2F)cc1`: the melting point lay within 95 to 97 °C.
For the compound `CC(C)(C)CC(=O)NN`, the melting point was in the range of 51 to 53 °C.
With `C=CCNC(=O)NC(C)(C)C(=O)O` the figure was 125 to 127 °C; with `ON=Cc1cnc2ccccn12`, 183 to 185 °C; with `CCc1nnc(S)n1C`, 138 to 140 °C.
For the compound `Cc1cc(C(F)(F)F)c(C#N)c(SCC(=O)O)n1`, the melting point fell in the range of 132 to 134 °C.
As for `N#Cc1ccc(NN)cc1C(F)(F)F`, the melting point lay within 119 to 121 °C.
The compound `NNC(=O)c1ccc(NS(=O)(=O)c2cccs2)cc1` registered a melting point of 178 to 180 °C.
With `COc1cccc(NCC(=O)NN)c1` the figure was 108 to 112 °C; with `N#Cc1c(Cl)nc2sccn12`, 174 to 176 °C; with `CCNc1ccc(S(=O)(=O)C(F)(F)F)cc1`, 63 to 65 °C.
Consider `Cc1c(N)cccc1S(=O)(=O)NC(C)(C)C`, for which the melting point lay in the range of 185 to 187 °C.
`NC(=O)Cn1cnc([N+](=O)[O-])c1` yielded a melting point of 153 to 155 °C.
With `O=C(O)c1cccnc1Nc1cccc(F)c1` the figure was 202 to 204 °C; with `CCn1c(C2CCN(C(=O)OC(C)(C)C)CC2)n[nH]c1=O`, 219 to 221 °C; with `NNc1ccnc2ccccc12`, 155 to 157 °C.
With `Cc1ccc(NS(=O)(=O)c2ccc(Cl)c(C(=O)O)c2)cc1C` the figure was 207 to 209 °C; with `O=C(CCl)NC1CCOc2ccccc21` (configuration not stated), 86 to 88 °C; with `CCC(O)(C(N)=O)c1ccc(Br)cc1` (configuration not stated), 146 to 148 °C.
With `OCCOc1ccc(Br)cc1`, the melting point is 53 to 55 °C.
Compound `O=C(O)Cc1ccc(S(=O)(=O)N2CCCCC2)s1` returned a melting point of 81 to 83 °C.
Compound `COc1ccc2nc(C)nc(Cl)c2c1` yielded a melting point of 119 to 121 °C.
`Cn1cc(C(=O)O)c(-c2cccnc2)n1` displayed a melting point of 201 to 203 °C.
Turning to `COc1ccccc1-c1ccc(C=O)cc1`, the melting point was in the range of 49 to 51 °C.
The compound `CC(Cl)C(=O)Nc1ccccc1Oc1ccccc1` (configuration not stated) had a melting point of 64 to 66 °C.
Regarding `Cc1ccc(CC(=O)O)cc1C`, the melting point was in the range of 96 to 98 °C.
As to `O=C(O)CCCOc1cccc(Br)c1`, the melting point is 50 to 52 °C.
Compound `O=C1NC(=O)C(=Cc2ccccc2C(F)(F)F)S1` yielded a melting point of 170 to 172 °C.
`Cc1cc(C(N)=O)c2ccccc2n1` showed a melting point of 246 to 248 °C.
Regarding `O=c1c(Br)c[nH]cc1[N+](=O)[O-]`, the melting point lay within 332 to 334 °C.
Turning to `COc1cccc(-n2cnnc2S)c1`, the melting point lay within 167 to 169 °C.
For `Nc1ccc(C(=O)NC2CCOCC2)cc1`, the melting point lay within 217 to 219 °C.
As to `Nc1nc(-c2ccccc2O)cs1`, the melting point fell in the range of 140 to 142 °C.
Compound `Cn1c(Cl)nnc1-c1ccc(Cl)cc1` showed a melting point of 179 to 181 °C.
Regarding `CCOC(=O)c1ncn(-c2ccc(C)cc2)c1N`, the melting point lay in the range of 246 to 248 °C.
The compound `NC(=O)CCCO` registered a melting point of 42 to 44 °C.
Consider `CCCCc1ccc(NS(=O)(=O)c2ccc(N)cc2)cc1`, for which the melting point was in the range of 159 to 161 °C.
For `O=C(O)CCNC(=O)c1ccc(Cl)cc1`, the melting point is 167 to 169 °C.
Turning to `Cc1sc2ncn(CCC(=O)O)c(=O)c2c1C`, the melting point was in the range of 194 to 196 °C.
The compound `Cc1ccc(N(CCC#N)C(=O)CCl)cc1` registered a melting point of 56 to 58 °C.
`Cc1cc(S(=O)(=O)Nc2ccccc2C(=O)O)ccc1F`: the melting point is 65 to 68 °C.
In turn, `CC(CC(=O)O)NC(=O)OC(C)(C)C` (configuration not stated) returned a melting point of 94 to 96 °C.
To `COc1ccccc1C1C(C(=O)O)CCC(=O)N1c1ccc(C)cc1` (configuration not stated) belongs 205 to 208 °C; to `CC(C)NC(=O)Nc1ccccc1C(=O)O`, 178 to 180 °C.
